Where a SMILES comes first, the peptide text is derived from it. Bridges are numbered along the chain shown (N, C = ends). Roman numbers before positions name the chains, in order. Where no end group is shown, it is not given here.
Columns and labels:
[1] = system: laminarin (β-1,3-glucan polymer), C. albicans cell wall component; test: Binding/radial diffusion assay with laminarin; type: cell-based; settings: peptide final 180 μg/ml, pre-incubated 2 h at 37°C, radial diffusion assay
Experimental: (§1) The candidacidal activities of the peptides were tested by using standard microdilution plate assays, radial diffusion assays and broth dilution assay slightly modified from the procedure recommended by the National Committee for Clinical Laboratory Standards. For the candidacidal assays, C. albicans cells were grown in YPD medium and washed twice with 10 mM sodium phosphate buffer (NaPB; Na2HPO4, NaH2PO4, pH 7.4). The cells (1 x 10^6) were then mixed with different concentrations of peptides and incubated at 30°C with constant shaking for 60 min. For energy depletion experiments, cells were pre-incubated with 10 mM NaPB containing 5 mM NaN3 at 30°C for 60 min before the addition of peptides. The cell suspensions were diluted in 10 mM NaPB and aliquots of 500 cells were spread onto YPD agar plates then incubated for 24 h at 30°C to visualize the surviving colonies. Cell survival was expressed as a percentage of that for the control, and the loss of viability was calculated as [1 x (number of colonies from peptide-treated cells/number of colonies from control cells)] x 100. Candidacidal assays were performed in triplicate. For the radial diffusion assay, C. albicans cells were grown in YPD medium overnight and washed twice with 10 mM NaPB. Washed yeast-phase C. albicans cells (1 x 10^6 CFU) were trapped in thin underlay gels containing 9 mM sodium phosphate, 1 mM sodium citrate buffer, 1% (wt/vol) agarose (A6013; Sigma), and 0.3 mg of Sabouraud dextrose broth (Difco)/ml. After incubation at 37°C for 3 h, a 10 ml overlay gel of 1% agarose and 6% Sabouraud dextrose broth was poured on the underlay gel and then the plates were incubated overnight at 37°C. The clear-zone diameters were measured to the nearest 0.1 mm and graphed against the peptide concentration. Zone diameters were expressed in units (0.1 mm = 1 unit). For the broth dilution assay, the Candida strains were cultured in LYM broth for 18 h at 30°C. The numbers of yeasts were counted using a hemocytometer. Stock peptide solutions were prepared to a concentration of 320 μg/ml in distilled water, and were then serially diluted twofold, to 5 μg/ml. 100 μl aliquots of the diluted culture media containing candida cells (1 x 10^3) were dispensed into the wells of 96-well polypropylene microtiter plates (Costar 3879, Corning, NY), to which peptide solution (11 μl) was then added. […] The antifungal activities were evaluated after 24 h of incubation at 30°C by the observation of visible turbidity the wells. The MIC values were expressed as intervals (a–b), with a representing the highest tested concentration at which microbes continue to grow, and b representing the lowest concentration at which growth inhibition could be detected.
Binding of hybrid peptides to the surface of C. albicans cells was examined by assessing the inhibitory effect of fungal cell wall components on the antimicrobial activity of the hybrid peptides. 20 μl of a pre-determined concentration of the peptides was added to 80 μl of each polysaccharide (0.07–40 mg/ml in 10 mM NaPB) including laminarin (β-1,3-glucan polymer; Sigma), pustulan (β-1,6-glucan polymer; Calbiochem) or mannan (mannose polymer; Sigma) and incubated for 2 h at 37°C. The inhibitory effects of the polysaccharides on the antimicrobial activity of the peptides were assessed by radial diffusion assay as described above. […]

[2] = system: Candida albicans; type: cell-based; settings: for reduction of cell viability: 1 μg/ml peptide, in 1 hour, colony count assay
Experimental: as §1, with “hemocytometer.” for “hemocytometer. Stock peptide solutions were prepared to a concentration of 320 μg/ml in distilled water, and were then serially diluted twofold, to 5 μg/ml. 100 μl aliquots of the diluted culture media containing candida cells (1 x 10^3) were dispensed into the wells of 96-well polypropylene microtiter plates (Costar 3879, Corning, NY), to which peptide solution (11 μl) was then added.”
Fig 4 Killing kinetics of Hst5, P113, di-18Hc, hybrid peptides against Candida albicans. Killing kinetics of peptides against C. albicans was measured by colony count assay. Candida cells were treated with a different concentration of peptides at a determined time. […] Killing percent was calculated with the following equation: Killing % = (number of control cell—number of treated cell)/control cell × 100.

[3] = CD spectra, secondary structure analysis; type: physicochemical; settings: 200 μg/ml peptide
Experimental: Circular dichroism (CD) spectra of the six peptides (Hst5, P113, HHP1, di-PH2, di-WP2 and di-18Hc) were measured with a J-715 spectropolarimeter (Jasco, Tokyo, Japan). Two hundred micrograms of each peptide was resuspended in 1 ml of 10 mM NaPB (pH 7.0) (i) without other additives, (ii) with 10% laminarin (LAM) or (iii) with 50% trifluoroethanol (TFE) (a known helix-inducing solvent). The spectra were measured at room temperature in a 1-mm-path-length quartz cell. The scanning speed was 10 nm/min (180 to 260 nm), and each spectrum was the average of five scans.
Fig 3 CD spectra of Hst5, P113, di-18Hc and hybrid peptides. This study was performed with one concentration (200 μg/ml) of each peptide in various buffers: 10 mM sodium phosphate buffer (Red line), 50% TFE in phosphate buffer (green line) and 20 mg of laminarin in phosphate buffer.

[4] = system: Candida albicans cells; test: Confocal microscopy localization and FITC-peptide/PI uptake assay; type: cell-based; settings: FITC-peptides and propidium iodide uptake assay, measured for 60 min
Experimental: To confirm the killing effect of the peptides, washed Candida cells (1 × 10^7 cells/ml) were treated with the peptides and propidium iodide (PI) was added. For energy depletion experiments, cells were pre-incubated with 10 mM NaPB containing 5 mM NaN3 at 30°C for 60 min before the addition of peptides. Propidium iodide (PI) uptake was measured using a multi reader and calculated with the formula [propidium iodide (PI) uptake value of peptide-treated cells—propidium iodide (PI) value of control cells] C. albicans cells were attached to concanavalin A (Sigma, 1 mg/ml solution in water) coated coverglass in chambered wells (Lab-Tek II). Cells (1 x 10^6) were deposited in each well, and 1 ml of 10 mM NaPB containing 5 μg PI (Sigma) and FITC-labeled peptides (Final concentration 10 μg/ml) were added to the chamber. Confocal images were acquired with an Olympus Fluoview FV10i-DOC (Olympus, Tokyo, Japan). ImageJ software was used for image acquisition and analysis.  Fig 5 Localizations of FITC-peptides in Candida albicans cells. C. albicans cells were incubated for 10 minutes with 10 μg/ml of FITC-peptides and visualized by confocal microscopy. […] FITC-peptides and PI uptake was measured for 60 min in Perkin Elmer 2030 reader (VictorX 3).

[5] = solvent 10mM NaPB (pH 7.0), room temperature, average of five scans

Row | Compound | laminarin concentration at which antimicrobial activity was drastically decreased by pre-incubation [1] [mg/mL] | reduction of cell viability [2] [%] | Secondary structure (%) Beta ([3]; solvent 10mM NaPB (pH 7.0)) [%] | Secondary structure (%) Random ([3]; solvent 10mM NaPB (pH 7.0)) [%] | Secondary structure (%) Turn ([3]; solvent 10mM NaPB (pH 7.0)) [%] | Secondary structure (%) Helix [3, 5] [%] | Secondary structure (%) Beta ([3]; solvent 50% TFE in 10 mM NaPB) [%] | Secondary structure (%) Helix ([3]; solvent 50% TFE in 10 mM NaPB) [%] | Secondary structure (%) Random ([3]; solvent 50% TFE in 10 mM NaPB) [%] | Secondary structure (%) Turn ([3]; solvent 50% TFE in 10 mM NaPB) [%] | FITC intensity in Candida cells [4] | killing kinetics (time) ([2]; membrane-attacking peptide with fast kinetics) [s]
1 | CC(C)C[C@H](NC(=O)[C@@H](N)Cc1c[nH]c2ccccc12)C(=O)N[C@@H](CC(N)=O)C(=O)N[C@@H](C)C(=O)N[C@@H](CCCCN)C(=O)N[C@@H](CCCNC(=N)N)C(=O)N[C@@H](Cc1c[nH]cn1)C(=O)N[C@@H](Cc1c[nH]cn1)C(=O)NCC(=O)N[C@@H](Cc1ccc(O)cc1)C(=O)N[C@@H](CCCCN)C(=O)N[C@@H](CSSC[C@H](NC(=O)[C@H](CCCCN)NC(=O)[C@H](Cc1ccc(O)cc1)NC(=O)CNC(=O)[C@H](Cc1c[nH]cn1)NC(=O)[C@H](Cc1c[nH]cn1)NC(=O)[C@H](CCCNC(=N)N)NC(=O)[C@H](CCCCN)NC(=O)[C@H](C)NC(=O)[C@H](CC(N)=O)NC(=O)[C@H](CC(C)C)NC(=O)[C@@H](N)Cc1c[nH]c2ccccc12)C(=O)N[C@@H](CCCCN)C(=O)N[C@@H](Cc1ccccc1)C(=O)N[C@@H](Cc1c[nH]cn1)C(N)=O)C(=O)N[C@@H](CCCCN)C(=O)N[C@@H](Cc1ccccc1)C(=O)N[C@@H](Cc1c[nH]cn1)C(N)=O [di-WP2] (I: H-WLNAKRHHGYKCKFH-NH2 / II: H-WLNAKRHHGYKCKFH-NH2; disulfide I:12-II:12 (inferred); N-terminus assumed) | 1.25 | 99 | 22.0 | 63.2 | 14.8 | 0.0 | 25.7 | 7.8 | 52.5 | 13.9 |  | 
2 | AKRHHGYKRKFH-NH2 [P113] | 5 |  | 0.0 | 95.3 | 4.7 | 0.0 | 34.8 | 4.4 | 60.8 | 0.0 | increased in a time dependent manner | 
3 | CC(C)C[C@H](NC(=O)CNC(=O)[C@H](Cc1c[nH]cn1)NC(=O)[C@H](Cc1c[nH]cn1)NC(=O)[C@H](CC(C)C)NC(=O)[C@H](CC(C)C)NC(=O)[C@H](C)NC(=O)[C@H](CC(N)=O)NC(=O)[C@H](CC(C)C)NC(=O)[C@@H](N)Cc1c[nH]c2ccccc12)C(=O)N[C@@H](CC(N)=O)C(=O)N[C@@H](CSSC[C@H](NC(=O)[C@H](CC(N)=O)NC(=O)[C@H](CC(C)C)NC(=O)CNC(=O)[C@H](Cc1c[nH]cn1)NC(=O)[C@H](Cc1c[nH]cn1)NC(=O)[C@H](CC(C)C)NC(=O)[C@H](CC(C)C)NC(=O)[C@H](C)NC(=O)[C@H](CC(N)=O)NC(=O)[C@H](CC(C)C)NC(=O)[C@@H](N)Cc1c[nH]c2ccccc12)C(=O)N[C@@H](C)C(=O)N[C@@H](CCCCN)C(=O)NCC(=O)N[C@H](C(=O)N[C@@H](CC(C)C)C(=O)N[C@@H](C)C(N)=O)C(C)C)C(=O)N[C@@H](C)C(=O)N[C@@H](CCCCN)C(=O)NCC(=O)N[C@H](C(=O)N[C@@H](CC(C)C)C(=O)N[C@@H](C)C(N)=O)C(C)C [di-18Hc, reference compound] (I: H-WLNALLHHGLNCAKGVLA-NH2 / II: H-WLNALLHHGLNCAKGVLA-NH2; disulfide I:12-II:12 (inferred); N-terminus assumed) | 0.3 | 99 | 29.2 | 61.5 | 5.5 | 3.8 | 10.4 | 47.0 | 28.4 | 14.2 |  | ≤ 30
4 | C[C@H](NC(=O)[C@H](Cc1c[nH]cn1)NC(=O)[C@H](CO)NC(=O)[C@@H](N)CC(=O)O)C(=O)N[C@@H](CCCCN)C(=O)N[C@@H](CCCNC(=N)N)C(=O)N[C@@H](Cc1c[nH]cn1)C(=O)N[C@@H](Cc1c[nH]cn1)C(=O)NCC(=O)N[C@@H](Cc1ccc(O)cc1)C(=O)N[C@@H](CCCCN)C(=O)N[C@@H](CCCNC(=N)N)C(=O)N[C@@H](CCCCN)C(=O)N[C@@H](Cc1ccccc1)C(=O)N[C@@H](Cc1c[nH]cn1)C(=O)N[C@@H](CCC(=O)O)C(=O)N[C@@H](CCCCN)C(=O)N[C@@H](Cc1c[nH]cn1)C(=O)N[C@@H](Cc1c[nH]cn1)C(=O)N[C@@H](CO)C(=O)N[C@@H](Cc1c[nH]cn1)C(=O)N[C@@H](CCCNC(=N)N)C(=O)NCC(=O)N[C@@H](Cc1ccc(O)cc1)C(=O)O [Hst 5, Histatin 5] | 2.5 |  | 19.3 | 74.5 | 6.2 | 0 | 7.3 | 76.2 | 0.0 | 16.4 | increased in a time dependent manner | 
